{"source": "patent US10968214B2", "about": "“KRas G12C inhibitors” (Eli Lilly and Company, priority 2018, dated 2021)", "key": {"[1]": {"system": "LXFA-983L", "assay": "CellTiterGlo Cell Proliferation Assay, LXFA-983L", "type": "cell-based", "conditions": "KRas G12C, Lung, 96 hr", "procedure": "(§1) A panel of tumor cell lines harboring KRas G12C or other KRas mutations are collected (Table 6). All cell lines are from ATCC or other sources indicated.\n(§2) Typically cells are cultured in RPMI1640 or Dulbecco's modified Eagle's medium (DMEM, GIBCO) supplemented with 10% FBS (GIBCO, Invitrogen). For 2D culture cells (4×10^3/well) maintained in growth medium described above, are plated onto 96 well tissue culture plates Corning® Cat. 3603) a day before the treatment. For 3D culture 8000 cells/well are seeded onto 96 well ultra-low attachment tissue culture plates (Corning, #3474). The cells are treated compound for 96 hr, and then are analyzed for viability using the CellTiterGlo® Luminescent Cell Viability Assay® (Promega #G7572 for 2D and Promega #G9683 for 3D cultures) according to manufacturer's instructions and an EnVision™ plate reader. Nonlinear regression and sigmoidal dose-response curves are used to calculate the half maximal inhibitory concentration (IC50) with GraphPad Prism 4® software."}, "[2]": {"system": "H2122", "assay": "CellTiterGlo Cell Proliferation Assay, H2122", "type": "cell-based", "conditions": "Homo sapiens, NCI-H2122, KRas G12C, Lung, 96 hr", "procedure": "as §1, §2"}, "[3]": {"system": "HCC827", "assay": "CellTiterGlo Cell Proliferation Assay, HCC827", "type": "cell-based", "conditions": "Homo sapiens, KRas wild type, lung, 96 hr", "procedure": "as §1, §2"}, "[4]": {"system": "Calu-6", "assay": "CellTiterGlo Cell Proliferation Assay, Calu-6", "type": "cell-based", "conditions": "Homo sapiens, KRas Q61K, lung, 96 hr", "procedure": "as §1, §2"}, "[5]": {"system": "pMEK in H358 xenograft tumors", "assay": "In vivo target inhibition/PD, H358 xenograft, pMEK", "parameters": "species or system mouse", "conditions": "for inhibition at 30 mg/kg: 30 mg/kg single dose", "procedure": "To evaluate in vivo target inhibition and anti-tumor efficacy of a compound, Human lung cancer cells, H358 or H2122 are implanted into nude mice xenograft tumor models. Either H358 or H2122 cells (10×10^6 in a 1:1 Matrigel® mix, 0.2 mL total volume) are implanted by subcutaneous injection in hind leg of nude female mice (Harlan Laboratories). A total of 5 mice each group are used for efficacy study, and a total of 3-4 mice each group are used for target engagement and PD study. Treatment is initiated with oral administration (gavage) of a test compound or vehicle (20% Captisol®, 25 mM phosphate, pH 2.0 in 0.2 mL volume when the tumor size reaches approximately […]. Tumor growth and body weight are monitored over time to evaluate efficacy and signs of toxicity. Bidimensional measurements of tumors are performed twice a week and tumor volumes are calculated based on mid-axis length and mid-axis width. Tumor volume data are transformed to a log scale to equalize variance across time and treatment groups. The log volume data are analyzed with a two-way repeated measures analysis of variance by time and treatment using the mixed procedures in SAS software (version 8.2). The correlation model for the repeated measures is spatial power. Treated groups are compared to the control group at each time point. The mixed procedure is also used separately for each treatment group to calculate adjusted means and standard errors at each time point. Both analyses account for the autocorrelation within each animal. The adjusted means and standard errors are plotted for each treatment group versus time.\nFor in vivo target inhibition and PD analysis, tumors are ground by mortar and pestle on dry ice and tumor fragments are added to 800 μL of lysis buffer containing 1% Triton X100, 25 mM Tris pH 7.5, 150 mM NaCl, 1 mM EDTA, and 1 mM EGTA with Halt protease and phosphatase inhibitor cocktail (Thermo Scientific, cat. no. 1861281) in lysing matrix D tubes (MP Biomedical®, cat. no. 6913-500) with one additional large bead (MP Biomedical® ¼″ ceramic sphere bead cat. no. 6540-412) per tube. Tumor fragments are homogenized in a Thermo Bio101® fast prep (FP120) at setting 4 for […] while cold for a total of 2 times. Lysates are spun at 14,000 rpm for 10 min at 4° C. to clarify. Protein estimation is done on the lysate supernatant using a BioRad Dc® protein assay and lysates are diluted in complete lysis/binding buffer from the Ras GTPase Chemi ELISA Kit® (Active Motif, cat. no. 52097). The active KRas ELISA was performed as follows: Glutathione-coated ELISA wells were incubated with diluted RAF1-GST in complete lysis/binding buffer for 1 hr at 4° C. with gentle agitation. Wells are washed 3 times with wash buffer and 100 μg of lysates are added to each well and incubated at RT for 1 hr with mild agitation. The wells are washed an additional 3 times, then primary antibody, diluted in antibody binding buffer, is added to each well. The plates are incubated for 1 hr. The wells are washed 3 more times before adding HRP-conjugated secondary antibody, diluted in antibody binding buffer, to each well. The plates are incubated at RT for 1 hr. ELISA wells are washed 4 times, chemiluminescent reagents is added and then luminescence is read. For pERK Meso Scale Discovery ELISA, 25 μg of protein containing 0.1% SDS is used; for pMEK Meso Scale Discovery ELISA, 50 μg of protein without SDS is used. Meso Scale Discovery Whole Cell Lysate Kits for pERK and pMEK are provided by Meso Scale Discovery.\nThe tumor samples are collected 4 hr post a single dose. The tumor lysates are prepared and the inhibition of pERK, pMEK, and active KRas is measured as described above.\nAfter a single dose, the tumor samples are harvested at 2, 4, 8, 12 and 24 hr post doing. The tumor lysates are prepared and the inhibition of pERK, pMEK, and active KRas is measured as described above."}, "[6]": {"conditions": "read-out: IC50 (μM) in 2 D cell proliferation"}, "[7]": {"conditions": "read-out: IC50 (μM) in 3 D spheroid cell proliferation"}}, "note": "Like-named read-outs stand apart in the source and are kept apart here."}
{"smiles": "C=CC(=O)N1CCN(c2ncnc3c(F)c(-c4ccc(F)c5sc(N)nc45)c(Cl)cc23)CC1", "note": "[Example 1, 1-{4-[7-(2-Amino-7-fluoro-1,3-benzothiazol-4-yl)-6-chloro-8-fluoroquinazolin-4-yl]piperazin-1-yl}prop-2-en-1-one]", "values": [{"measurement": "IC50", "setting": "[1]; [6]", "value": 1.34, "unit": "µM"}, {"measurement": "IC50", "setting": "[1]; [7]", "value": 0.05, "unit": "µM"}, {"measurement": "IC50", "setting": "[2]; [6]", "value": 0.187, "unit": "µM"}, {"measurement": "IC50", "setting": "[2]; [7]", "value": 0.017, "unit": "µM"}, {"measurement": "IC50", "setting": "[3]; [6]", "value": 18.9, "unit": "µM"}, {"measurement": "IC50", "setting": "[3]; [7]", "value": 4.63, "unit": "µM"}, {"measurement": "IC50", "setting": "[4]; [6]", "value": 12.1, "unit": "µM"}, {"measurement": "IC50", "setting": "[4]; [7]", "value": 19.5, "unit": "µM"}, {"measurement": "% Inhibition pMEK", "setting": "[5]; H358 xenograft, time course, 10 mg/kg single dose, 24 hr, 10 mg/kg", "value": 30.4, "unit": "%"}, {"measurement": "dose to achieve 50% target inhibition (TED50), pMEK", "setting": "[5]; H358 xenograft, single dose, 4 hr", "value": 11.19, "unit": "mg/kg"}, {"measurement": "inhibition at 10 mg/kg", "setting": "[5]; Mus musculus, NCI-H358, 2 h, H358 xenograft, time course, 10 mg/kg single dose, 2 hr, read-out: % Inhibition pMEK", "value": 49.2, "unit": "%"}, {"measurement": "inhibition at 30 mg/kg", "setting": "[5]; Mus musculus, NCI-H358, 2 h, H358 xenograft, time course, 2 hr, read-out: % Inhibition pMEK", "value": 81.4, "unit": "%"}, {"measurement": "inhibition at 10 mg/kg", "setting": "[5]; Mus musculus, NCI-H358, 4 h, H358 xenograft, time course, 10 mg/kg single dose, 4 hr, read-out: % Inhibition pMEK", "value": 59.5, "unit": "%"}, {"measurement": "inhibition at 30 mg/kg", "setting": "[5]; Mus musculus, NCI-H358, 4 h, H358 xenograft, time course, 4 hr, read-out: % Inhibition pMEK", "value": 89.3, "unit": "%"}, {"measurement": "inhibition at 1 mg/kg", "setting": "[5]; Mus musculus, NCI-H358, 4 h, H358 xenograft, 1 mg/kg single dose, 4 hr post dose", "value": -6.2, "unit": "%"}, {"measurement": "inhibition at 3 mg/kg", "setting": "[5]; Mus musculus, NCI-H358, 4 h, H358 xenograft, 3 mg/kg single dose, 4 hr post dose", "value": 11.1, "unit": "%"}, {"measurement": "inhibition at 10 mg/kg", "setting": "[5]; Mus musculus, NCI-H358, 4 h, H358 xenograft, 10 mg/kg single dose, 4 hr post dose, read-out: % Inhibition pMEK", "value": 43.1, "unit": "%"}, {"measurement": "inhibition at 30 mg/kg", "setting": "[5]; Mus musculus, NCI-H358, 4 h, H358 xenograft, 4 hr post dose, read-out: % Inhibition pMEK", "value": 82.1, "unit": "%"}, {"measurement": "inhibition at 100 mg/kg", "setting": "[5]; Mus musculus, NCI-H358, 4 h, H358 xenograft, 100 mg/kg single dose, 4 hr post dose", "value": 85.8, "unit": "%"}, {"measurement": "inhibition at 10 mg/kg", "setting": "[5]; Mus musculus, NCI-H358, 8 h, H358 xenograft, time course, 10 mg/kg single dose, 8 hr, read-out: % Inhibition pMEK", "value": 62.4, "unit": "%"}, {"measurement": "inhibition at 30 mg/kg", "setting": "[5]; Mus musculus, NCI-H358, 8 h, H358 xenograft, time course, 8 hr, read-out: % Inhibition pMEK", "value": 81.8, "unit": "%"}, {"measurement": "inhibition at 10 mg/kg", "setting": "[5]; Mus musculus, NCI-H358, 12 h, H358 xenograft, time course, 10 mg/kg single dose, 12 hr, read-out: % Inhibition pMEK", "value": 77.9, "unit": "%"}, {"measurement": "inhibition at 30 mg/kg", "setting": "[5]; Mus musculus, NCI-H358, 12 h, H358 xenograft, time course, 12 hr, read-out: % Inhibition pMEK", "value": 65.8, "unit": "%"}, {"measurement": "inhibition at 10 mg/kg", "setting": "[5]; Mus musculus, NCI-H358, 24 h, H358 xenograft, time course, 10 mg/kg single dose, 24 hr, read-out: % Inhibition pMEK", "value": 30, "unit": "%"}, {"measurement": "inhibition at 30 mg/kg", "setting": "[5]; Mus musculus, NCI-H358, 24 h, H358 xenograft, time course, 24 hr, read-out: % Inhibition pMEK", "value": 35, "unit": "%"}, {"measurement": "inhibition at 10 mg/kg", "setting": "[5]; Mus musculus, NCI-H358, H358 xenograft, 10 mg/kg single dose, from 2-12 hr, read-out: pMEK inhibition", "value": "49 to 78", "unit": "%"}, {"measurement": "inhibition at 30 mg/kg", "setting": "[5]; Mus musculus, NCI-H358, H358 xenograft, from 2-24 hr, read-out: pMEK inhibition", "value": "35 to 89", "unit": "%"}, {"measurement": "EC50", "setting": "[5]; Mus musculus, NCI-H358, H358 xenograft, plasma exposure by mass spectrum, read-out: plasma concentration to achieve 50% target inhibition (TEC50), pMEK", "value": 515, "unit": "nM"}]}
